Results published in US7410765B2, “System for protease mediated protein expression” (The Regents of the University of California, priority 2004, dated 2008).

Tested on: caspase-3
Assay: Caspase-3-dependent DsRed fluorescence in live transgenic zebrafish embryos injected with the UbG-DEVDsRx reporter construct
Format: in vivo
Protocol: As discussed in detail below, the invention was tested by making a construct where the degradation signal is a non-removable ubiquitin moiety (G76V zebrafish ubiquitin mutant) fused to the red fluorescent protein DsRed Express by a linker containing a caspase-3 cleavage site (amino acid sequence: DEVD; SEQ ID NO: 1). […] The DNA construct was microinjected in one-cell-stage zebrafish embryos to generate transgenic fish where apoptotic cells express the red fluorescent marker.
Specific labelling of apoptotic cells by UbG-DEVDsRx depends on a functional proteasomal degradation pathway because failure to degrade the UbG76V-tagged chimera would allow fluorescence to develop, even in the absence of caspase-3 activity.
Morpholino-modified oligonucleotides were injected in the yolk of one-cell-stage embryos. DNA constructs were linearized and injected in the cytoplasm of one-cell-stage embryos. For each experiment, 200-250 transgenics were generated. Upon reaching the desired age, 20-30 embryos with similar transgene expression levels and low-mosaicism were selected for TUNEL labelling, confocal microscopy, in vivo observations and cell counts.
Fixed and live embryos were embedded in 1.2% low-melt agarose on a glass slide and immersed in a drop of water to retain humidity.

COC(=O)CC[C@H](NC(=O)[C@H](CC(=O)OC)NC(=O)OCc1ccccc1)C(=O)N[C@H](C(=O)N[C@@H](CC(=O)OC)C(=O)CF)C(C)C [Z-DEVD-FMK]
expression of red fluorescence in embryo injected with the test construct (embryo incubated in the presence of Z-DEVD-FMK, 75 μM, FIG. 1e): does not express any fluorescence | fluorescence (UbG-DEVDsRx labelling) in living transgenic embryos (embryos exposed to the caspase-3 inhibitor, concentration not given): fluorescence is absent
